Assays:
[1] = biological target: T1, Retinaldehyde dehydrogenase 3 (Homo sapiens, UniProt P47895); test: Activation of full length recombinant human ALDH1A3 expressed in Escherichia coli BL21(DE3) preincubated for 2 mins followed by addition of propionaldehyde as substrate in presence of NAD+ by spectrophotometric method
T1 sequence (P47895 whole entry): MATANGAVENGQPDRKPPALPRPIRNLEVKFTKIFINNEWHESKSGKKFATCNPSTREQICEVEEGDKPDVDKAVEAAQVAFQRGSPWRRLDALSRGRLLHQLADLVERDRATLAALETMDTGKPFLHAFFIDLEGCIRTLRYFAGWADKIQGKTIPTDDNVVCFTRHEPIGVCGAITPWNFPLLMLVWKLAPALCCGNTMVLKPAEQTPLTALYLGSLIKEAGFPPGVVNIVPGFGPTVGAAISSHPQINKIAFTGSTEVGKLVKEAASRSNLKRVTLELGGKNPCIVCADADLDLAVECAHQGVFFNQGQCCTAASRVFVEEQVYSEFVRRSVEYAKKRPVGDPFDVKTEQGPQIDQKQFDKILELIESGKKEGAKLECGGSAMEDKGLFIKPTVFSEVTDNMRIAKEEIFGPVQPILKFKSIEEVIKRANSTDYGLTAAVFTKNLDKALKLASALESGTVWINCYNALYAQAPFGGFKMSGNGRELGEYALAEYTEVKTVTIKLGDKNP

[2] = biological target: T2, Retinaldehyde dehydrogenase 3 (Homo sapiens) (UniProt P47895); test: (§1) Activation of full length recombinant human ALDH1A3 expressed in Escherichia coli BL21(DE3) preincubated for 2 mins followed by addition of propionaldehyde as substrate in presence of NAD+ by spectrophotometric method relative to control
T2 sequence (whole entry): T1 sequence (P47895 whole entry)

[3] = biological target: T3, Aldehyde dehydrogenase X, mitochondrial (Homo sapiens, UniProt P30837)
T3 sequence (P30837 whole entry): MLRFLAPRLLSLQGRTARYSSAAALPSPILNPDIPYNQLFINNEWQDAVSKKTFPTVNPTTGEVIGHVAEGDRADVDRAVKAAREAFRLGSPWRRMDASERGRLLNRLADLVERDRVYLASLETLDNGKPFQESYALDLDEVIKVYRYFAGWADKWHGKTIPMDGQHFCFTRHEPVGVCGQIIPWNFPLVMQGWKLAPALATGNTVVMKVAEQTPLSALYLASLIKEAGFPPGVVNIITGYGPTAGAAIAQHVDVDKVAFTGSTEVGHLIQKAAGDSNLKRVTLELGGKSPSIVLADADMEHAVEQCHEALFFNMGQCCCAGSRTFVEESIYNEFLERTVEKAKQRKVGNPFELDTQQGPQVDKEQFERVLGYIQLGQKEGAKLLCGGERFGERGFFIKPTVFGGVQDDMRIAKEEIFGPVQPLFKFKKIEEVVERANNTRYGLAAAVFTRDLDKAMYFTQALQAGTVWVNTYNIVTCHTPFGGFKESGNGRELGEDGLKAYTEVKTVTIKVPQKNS
Description: Inhibition of full length recombinant human ALDH1B1 expressed in Escherichia coli TunerDE3 assessed as reduction in dehydrogenase activity by measuring NAD(P)H level preincubated for 2 mins followed by addition of propionaldehyde as substrate in presence of NAD+ by spectrophotometric method

Retinal dehydrogenase 2 = biological target: T4, Retinal dehydrogenase 2 (Homo sapiens, UniProt O94788)
T4 sequence (O94788 whole entry): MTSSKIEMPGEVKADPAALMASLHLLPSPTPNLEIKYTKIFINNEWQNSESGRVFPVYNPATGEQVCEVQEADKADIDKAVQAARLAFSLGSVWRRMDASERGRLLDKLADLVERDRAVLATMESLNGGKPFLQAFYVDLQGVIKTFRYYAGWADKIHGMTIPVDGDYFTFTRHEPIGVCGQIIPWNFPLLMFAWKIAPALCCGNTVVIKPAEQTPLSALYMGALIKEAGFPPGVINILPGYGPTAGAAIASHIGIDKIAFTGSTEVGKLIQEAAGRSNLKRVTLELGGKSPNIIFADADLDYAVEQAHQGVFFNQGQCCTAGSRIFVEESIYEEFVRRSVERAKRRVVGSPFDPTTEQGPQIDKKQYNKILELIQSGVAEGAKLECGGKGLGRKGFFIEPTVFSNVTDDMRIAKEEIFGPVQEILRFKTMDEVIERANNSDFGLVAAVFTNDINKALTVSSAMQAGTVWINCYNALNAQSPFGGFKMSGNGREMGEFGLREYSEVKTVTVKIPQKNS
Description: Inhibition of full length recombinant human ALDH1A2 expressed in Escherichia coli BL21(DE3) assessed as reduction in dehydrogenase activity by measuring NAD(P)H level preincubated for 2 mins followed by addition of propionaldehyde as substrate in presence of NAD+ by spectrophotometric method

[4] = biological target: T1, Retinaldehyde dehydrogenase 3
Description: (§2) Inhibition of full length recombinant human ALDH1A3 expressed in Escherichia coli BL21(DE3) assessed as reduction in dehydrogenase activity by measuring NAD(P)H level preincubated for 2 mins followed by addition of propionaldehyde as substrate in presence of NAD+ by spectrophotometric method

[5] = biological target: T5, Aldehyde dehydrogenase 1A1 (Homo sapiens) (UniProt P00352); test: as §1, with “Inhibition” for “Activation”, “ALDH1A1” for “ALDH1A3”, “BL21(DE3) assessed as reduction in dehydrogenase activity by measuring NAD(P)H level” for “BL21(DE3)”
T5 sequence (whole entry): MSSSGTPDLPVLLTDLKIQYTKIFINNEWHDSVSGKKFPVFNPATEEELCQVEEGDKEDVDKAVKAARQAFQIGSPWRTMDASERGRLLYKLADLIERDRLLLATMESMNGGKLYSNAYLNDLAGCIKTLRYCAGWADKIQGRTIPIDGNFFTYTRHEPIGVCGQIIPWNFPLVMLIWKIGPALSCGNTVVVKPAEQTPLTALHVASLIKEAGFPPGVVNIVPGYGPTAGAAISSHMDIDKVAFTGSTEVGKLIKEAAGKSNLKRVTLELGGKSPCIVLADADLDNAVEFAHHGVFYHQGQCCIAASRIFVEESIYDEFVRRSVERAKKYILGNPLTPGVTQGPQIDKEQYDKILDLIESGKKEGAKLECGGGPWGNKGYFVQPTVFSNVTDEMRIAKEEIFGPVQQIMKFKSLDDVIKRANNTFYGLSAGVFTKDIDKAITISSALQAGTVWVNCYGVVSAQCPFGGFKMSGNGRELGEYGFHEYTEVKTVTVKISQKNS

[6] = biological target: T6, Aldehyde dehydrogenase 1A1 (Homo sapiens, UniProt P00352); test: Uncompetitive inhibition of full length recombinant human ALDH1A1 expressed in Escherichia coli BL21(DE3) using propionaldehyde as substrate in presence of varying levels NAD+ by Lineweaver-Burk plot analysis
T6 sequence (P00352 whole entry): T5 sequence (whole entry)

[7] = biological target: T1, Retinaldehyde dehydrogenase 3; remark: listed apart in the source
Description: as §2

[8] = biological target: T2, Retinaldehyde dehydrogenase 3 (Homo sapiens); test: as §1, with “Inhibition” for “Activation”, “BL21(DE3) assessed as reduction in dehydrogenase activity by measuring NAD(P)H level” for “BL21(DE3)”
[9] = biological target: T7, Aldehyde dehydrogenase X, mitochondrial (Homo sapiens) (UniProt P30837); test: as §1, with “Inhibition” for “Activation”, “ALDH1B1” for “ALDH1A3”, “TunerDE3 assessed as reduction in dehydrogenase activity by measuring NAD(P)H level” for “BL21(DE3)”
T7 sequence (whole entry): T3 sequence (P30837 whole entry)

[10] = biological target: T8, Retinal dehydrogenase 2 (Homo sapiens) (UniProt O94788); test: as §1, with “Inhibition” for “Activation”, “ALDH1A2” for “ALDH1A3”, “BL21(DE3) assessed as reduction in dehydrogenase activity by measuring NAD(P)H level” for “BL21(DE3)”
T8 sequence (whole entry): T4 sequence (O94788 whole entry)

With `C/C(=N\O)c1cc2cc(Br)ccc2oc1=O` the AC50 [1] was 35000 nM, the %max [2] was 200% and the IC50 [3] was “Not Active”. The IC50 (Retinal dehydrogenase 2) was “Not Active”.
Compound `CCCc1cc(=O)oc2cc3oc(C)c(C)c3cc12` has an AC50 [1] of 870 nM and a %max [2] of 200%.
Work on `CCCc1c(C)c2cc3c(C)c(C)oc3cc2oc1=O` yielded an IC50 [4] of 400 nM.
Work on `CCCc1c(C)c2cc3c(C)coc3cc2oc1=O` yielded an Imax [5] of 60% and an IC50 [4] of 1100 nM.
`Cc1oc2cc3oc(=O)c(CCC(=O)N4CCCCC4)c(C)c3cc2c1C` gave an IC50 [4] of 14000 nM and a Ki [6] of 170 nM.
`COC(=O)C(C)Oc1ccc2c(C)cc(=O)oc2c1` (stereo not given) was tested, and the IC50 [7] was “Not Active”, the IC50 [3] was “Not Active” and the IC50 (Retinal dehydrogenase 2) was “Not Active”.
`Cc1oc2cc3oc(=O)c4c(c3cc2c1C)CCC4` showed an Imax [8] of 50 to 60%, an Imax [5] of 50 to 60% and an IC50 [4] of 170 nM.
`Cc1oc2cc3oc(=O)c(C)c(C)c3cc2c1C` showed an Imax [9] of 60%, an IC50 [4] of 270 nM and an Imax [10] of 60%.
